According to ChEMBL document CHEMBL4673240, “Euphnerins A and B, Diterpenoids with a 5/6/6 Rearranged Spirocyclic Carbon Skeleton from the Stems of Euphorbia neriifolia” (J Nat Prod, 2020):

Test: Inhibition of LPS-induced NO production in mouse BV-2 cells
Type: functional, cell-based

SMILES | IC50
CSC(=N)N | 2 µM
C=C[C@@]1(C)CC[C@]2(C)C(=O)[C@@]3(CC[C@H]2C1)[C@H](O)CCC3(C)C | > 30 µM
C=C[C@@]1(C)CC[C@]2(C)C(=O)[C@@]3(CC[C@H]2C1)[C@H](O)C[C@@H](O)C3(C)C | 22.4 µM
